One experiment deals with lymphoma cells. To be noted: reference (45); cited from earlier work.
The next experiment relates to B-cell lymphomas. The following applies: in vitro; cited from earlier work.
The test system of experiment [1] is microglia (CD45lo CD11b+). The experiment in a line: Flow cytometry of microglia / CD11b+ cells isolated from the CNS of mice. Type of experiment: in vivo. To be noted: melanoma bearing mice on CSF-1R inhibitor diet vs control diet (Fig. 6, Fig. 14). From the text:
(§1) The invention is further described by the following figures. These are not intended to limit the scope of the invention but represent preferred embodiments of aspects of the invention provided for greater illustration of the invention described herein. • Figure 1: Microglia show signs of activation upon anti-PD-1 treatment in the absence of tumor. (A-C) Histology of brain samples immunostained for Iba-1^+ cells from the cortex of mice treated with anti-PD-1 or isotype control on day 22 after treatment. (A) Representative images from each group are shown. Scale bars, 50µm. The scatter plots show the number of Iba-1^+ cells (per mm^2) in cortex (B) and hippocampus (C). The results (mean ± s.e.m.) were combined. […] The P-values were calculated using the unpaired student's t-test. […] (E-H) Scatter plots showing Imaris-based automated quantification of microglial morphology from microglia the cortex of mice treated with anti-PD-1 or isotype control on day 22 after treatment. […] The P-values were calculated using the unpaired student's t-test. • Figure 2: Anti-PD-1 treatment causes neurocognitive deficits and increased CSF-1R and MHC-II expression on microglia. […] (C-D) The scatter plot (C) and representative histogram (D) show the quantification (fold change of MFI) of CSF-1R (CD115) on microglia (CD45^lo CD11b^+) isolated from the CNS of mice treated with anti-PD-1 or isotype control on day 22. […]
For orientation: In flow cytometry, cells or beads pass a laser one at a time.

Experiment [2] relates to cells isolated from BM and spleen. The experiment in a line: Flow cytometry of peripheral immune cells from BM and spleen of melanoma-bearing mice. Type of experiment: in vivo. From the text: (§2) The invention is further described by the following figures. These are not intended to limit the scope of the invention but represent preferred embodiments of aspects of the invention provided for greater illustration of the invention described herein. • Figure 1: Microglia show signs of activation upon anti-PD-1 treatment in the absence of tumor. (A-C) Histology of brain samples immunostained for Iba-1^+ cells from the cortex of mice treated with anti-PD-1 or isotype control on day 22 after treatment. (A) Representative images from each group are shown. Scale bars, 50µm. The scatter plots show the number of Iba-1^+ cells (per mm^2) in cortex (B) and hippocampus (C). The results (mean ± s.e.m.) were combined. The experiment was performed three times. The P-values were calculated using the unpaired student's t-test. (D) Representative images showing Imaris (Bitplane)-based 3D-reconstruction of Iba-1^+ microglia from the cortex of mice treated with anti-PD-1 or isotype control as indicated. Scale bar: 10µm. (E-H) Scatter plots showing Imaris-based automated quantification of microglial morphology from microglia the cortex of mice treated with anti-PD-1 or isotype control on day 22 after treatment. […] The P-values were calculated using the unpaired student's t-test. • Figure 2: Anti-PD-1 treatment causes neurocognitive deficits and increased CSF-1R and MHC-II expression on microglia. (A-B) Representative immunofluorescence images and scatter plot depicting the quantification of the ratio of extravascular versus intravascular FITC-dextran indicative of BBB leakage via extravasation of FITC-dextran in the cortex of either untreated, isotype-treated, or anti-PD-1-treated mice. […] (C-D) The scatter plot (C) and representative histogram (D) show the quantification (fold change of MFI) of CSF-1R (CD115) on microglia (CD45^lo CD11b^+) isolated from the CNS of mice treated with anti-PD-1 or isotype control on day 22. […] The P-values were calculated using the student's t-test (B, C, E, K-M) and paired samples Wilcoxon test (G, I). […] The P-values were calculated using the unpaired student's t-test. […]

The test system of experiment [3] is mice. The experiment is described as follows: Grip strength test. Format: in vivo. To be noted: melanoma bearing mice.
From the text: as §1

Experiment [4] has as its system mice. The experiment is described as follows: Novel object recognition test. Type of experiment: in vivo.
From the text: as §2

Experiment [5] deals with mice. The experiment in a line: Elevated plus maze test. Format: in vivo. To be noted: melanoma bearing mice, anti-PD-1 plus Syk inhibitor vs anti-PD-1 plus vehicle (Fig. 7L day 17; Fig. 33A).
From the text: as §1

Regarding `Cn1cc(-c2nc(N[C@@H]3CCCC[C@@H]3N)c(F)c3c2C(=O)NC3)cn1` [TAK-659], the “pro-survival, proliferative, chemoresistant, and activation effects promoted by the microenvironment” value with lymphoma cells is “impair”.

Regarding `CCS(=O)(=O)N1CCN(c2ccc(Nc3ncc(C(N)=O)c(NC4CC4)n3)cc2)CC1` [Cerdulatinib], in the experiment with B-cell lymphomas, the “activity against B-cell lymphomas” value is “in vitro activity”.

Regarding `COc1ncc(F)cc1CNc1ccc(Cc2c[nH]c3ncc(C)cc23)c(F)n1` [PLX5622], the “CSF-1R positive cells (CD11b+ and CD11b+CD45lo cells in the CNS)” value in experiment [1] is “depletion”. Besides, the “frequencies of CD45, CD11b, Ly6C and CD11c populations in the BM and spleen” value in experiment [2] (CSF-1R inhibitor diet day -7 to day 23) is reported as “did not alter”. For the same compound, the “grip strength normalized to body weight” value in the experiment with mice [3] (isotype or anti-PD-1 plus depleting agent or its control, day 23 (Fig. 6C, D, G, H)) is reported as “intact”. Moreover, the “neurocognitive function in novel object recognition test, anti-PD-1 treated mice” value in the experiment with mice [4] (melanoma bearing mice treated with anti-PD-1 plus depleting agent or its control, day 23 (Fig. 6B, F, J, M, O)) is “improved”. Besides, in the experiment on mice [4] (melanoma bearing mice treated with isotype antibody plus depleting agent or its control, day 23 (Fig. 6A, E)), the “neurocognitive function in novel object recognition test, isotype treated mice” value is on record as “did not develop neurocognitive deficits”.

Turning to `COc1cc(Nc2ncc(F)c(Nc3ccc4c(n3)N(COP(=O)(O)O)C(=O)C(C)(C)O4)n2)cc(OC)c1OC` [Fostamatinib], the “entries into open arms (exploratory)” value in the experiment with mice [5] is “reproducible”. For the same compound, the “peripheral myeloid compartment (CD45+, F4/80+ cells in BM and spleen)” value in experiment [2] (anti-PD-1/isotype and second Syk inhibitor/vehicle (Fig. 33D-G)) was “No changes”. Besides, the “CD3+ T cells in the BM and spleen” value in experiment [2] (anti-PD-1/isotype and second Syk inhibitor/vehicle (Fig. 33H and I)) is on record as “expansion”. In the experiment on mice [3] (anti-PD-1 plus Syk inhibitor or vehicle (Fig. 7M day 17; Fig. 33C)), the “grip strength normalized to body weight” value is given as “reproducible”. For the same compound, the “time spent exploring a novel object with respect to the total time (memory)” value in the experiment with mice [4] (melanoma bearing mice, anti-PD-1 plus Syk inhibitor vs anti-PD-1 plus vehicle (Fig. 7K day 17; Fig. 33B)) is listed as “reproducible”.

Source of the values: patent publication EP4520333A1, “SYK INHIBITORS FOR USE IN THE TREATMENT OF IMMUNE CHECKPOINT INHIBITION INDUCED ADVERSE EVENTS” (Albert-Ludwigs-Universität Freiburg, priority 2023, dated 2025).
